Tests used:
Chlorella sp. ATCC 7516 = assay: Algal efficacy testing of dry paint films (modified ASTM 5589, 6-well plates); assay type: cell-based; conditions: 3 weeks; for % inhibition: at the Total conc, versus blank sample; for Total conc (concentration chosen as minimum inhibitory concentration, pass level ≧75% inhibition): total active ingredient in acrylic/silicone paint, dry film on filter paper
Experimental: (§1) Slurries containing 33% antimicrobial active ingredient (chlorotoluron) were post added to a white, acrylic/silicone based outdoor paint free of biocides to give a total active ingredient concentration of 10000 and 1000 ppm respectively. KATHON™ 893T (100% OIT) was post added to a white, acrylic/silicone based outdoor paint free of biocides to give a total active ingredient concentration of 10000 and 1000 ppm respectively. These paints were then diluted with an antimicrobial free acrylic/silicone based paint and mixed to prepare targeted concentrations of antimicrobial compounds for the testing. The total biocides concentrations tested were 125, 250, 500, 1000, 2000 and 5000 ppm. After biocides addition or dilution, the paints were mixed 90 seconds with the horse power shaker (AXEL 75M3372/Agitateur SO-10MI) until uniformity was achieved. Paints containing different antimicrobial compounds at the same levels were mixed together in order to obtain the desired ratio of antimicrobial compounds. After one day, the paints were applied to Schleicher & Schuell filter paper at 280 μm wet film thickness and dried for 3 days at room temperature avoiding direct exposure to sunlight. Square discs (1.6 cm×1.6 cm) were cut out from each panel and were used as the substrate for algal efficacy tests. This sample size allowed for an agar border when the sample disc was placed into the well of the test plate.
(§2) Algal efficacy was tested according to modified ASTM 5589 which is a standard accelerated test method for determining resistance of various coatings (including paints) to algal defacement. To accommodate for high-throughput screening, this method was scaled down from petri dishes to 6-well plates. Bold Modified Basal Freshwater Nutrient Solution was used as growth medium. A single coated filter paper coupon was placed with a pair of sterile forceps at the center of the agar plug (on top) with the painted surface facing upwards. Algal inoculums were prepared by mixing equal concentrations (1×10^6 cfu/ml) and equal volumes of exponentially growing algae cultures.
(§3) Each well that contains a tested coupon was inoculated with 1750 μl of algal suspensions (1×10^6 cfu/ml) making sure that the whole surface (paint film as well as the agar surrounding it) was evenly covered. The plates were incubated at room temp (21° C.-25° C.) with cyclic exposure to light and dark phases, for a period of three weeks. The total area inhibited was evaluated at the end of each week according to percent area covered in 5% increments
(§4) At the end of the three week incubation period, the samples were scored for percent inhibition regarding color intensity compared to the blank sample.
(§5) The Synergy Index calculation was performed as follows.
(§6) The SI is calculated based on F. C. Kull et.
(§7) SI value of <1 in the formula indicates a synergism of the blended biocides exists.
(§8) The minimal targeted inhibition was set at 75%, meaning a coupon with at least 75% algal growth inhibition was considered as a pass.

[1] = system: Stichococcus bacillaris SAG 379-1a / CCAP 379/1a; assay: as above; assay type: cell-based; conditions: 3 weeks; for % inhibition: at the Total conc, versus blank sample; for Total conc (concentration chosen as minimum inhibitory concentration, pass level ≧75% inhibition): total active ingredient in acrylic/silicone paint, dry film on filter paper
Experimental: as §1, §2, §3, §4, §5, §6, §7, §8

For `Cc1ccc(NC(=O)N(C)C)cc1Cl` [Chlorotoluron, N′-(3-chloro-4-methylphenyl)-N,N-dimethylurea], the “% inhibition” value (Chlorella sp. ATCC 7516) was 100%, the “Total conc (concentration chosen as minimum inhibitory concentration, pass level ≧75% inhibition)” value (Chlorella sp. ATCC 7516) was 1000 ppm and the “% inhibition” value [1] was 90%. For the same molecule, the “Total conc (concentration chosen as minimum inhibitory concentration, pass level ≧75% inhibition)” value [1] was 500 ppm.
In the case of `CCCCCCCCn1sccc1=O` [OIT, 2-n-octyl-4-isothiazolin-3-one], the “% inhibition” value (Chlorella sp. ATCC 7516) is reported as 50%, the “Total conc (concentration chosen as minimum inhibitory concentration, pass level ≧75% inhibition)” value (Chlorella sp. ATCC 7516) is reported as 2000 ppm and the “% inhibition” value [1] is reported as 60%. For the same molecule, the “Total conc (concentration chosen as minimum inhibitory concentration, pass level ≧75% inhibition)” value [1] was 2000 ppm.

— US9326518B2, “Synergistic combination of a chlorotoluron compound and OIT for dry film protection” (Dow Global Technologies LLC, priority 2013, dated 2016)
